Reference: patent US20250334558A1, “TOTAL HYDROGEN SULFIDE QUANTIFICATION” (The Cleveland Clinic Foundation, priority 2022, published 2025)
Residues, ends and D or L forms follow the SMILES beside them.

How the values were obtained:
[1] = Long term (one year) stability study of H2S and thiols in human plasma samples; conditions: n = 3
Description: (§1) Long-term stability of H2S and thiols in plasma samples was determined by “accelerated” stability. Samples were incubated in gas tight vials at 60° C. Each day, for five days (and after 1 year), an aliquot was cooled on ice, derivatized, and then analyzed by mass spectrometry. Stability was reported as the mean of the daily stability assay calculated across the five days. The long-term stability was calculated using the following formula: % Stability=(Ct/C0)×100; where C0 is the initial concentration of thiols and Ct is the concentration after each day of incubation. To determine whether the analyte was stable following derivatization, samples from 3 QC levels were kept at auto-sampler temperature and tested for five days. Stability was reported as the mean of the daily stability results for five days using the following formula: % Stability=(Ct/C0)×100; where C0 is the initial concentration of thiols and Ct is the concentration after each day of incubation.
Stability The stability of H2S and thiols in samples was determined through an accelerated stability study of pooled serum samples (Quality Control (QC) samples at 3 concentration levels) analyzed in triplicates at 60° C. for 5 days and compared with fresh matrix that was immediately processed. […] Extract stability was also tested by reanalyzing QC extracts after ≥3 days at 10° C. (auto-sampler temperature) and quantifying against a freshly analyzed sample.

[2] = Storage stability of synthesized isotope labelled internal standard [^34S]Na2S and stock master solutions at −80° C.; conditions: Storage at −80° C.
Description: The internal standard stock solution was prepared by weighing anhydrous [^34S]Na2S (in glovebox under nitrogen atmosphere) and dissolving it in ammonium bicarbonate buffer (pH 10).
IS working solutions were diluted 10-fold immediately before use.
The recovery of IS for H2S and other monitored thiols was examined in human plasma by comparing analyte peak areas in pooled human serum versus vehicle.

[3] = pooled serum QC samples, 60° C., 5 days, vs fresh matrix
Description: as §1
Stability The stability of H2S and thiols in samples was determined through an accelerated stability study of pooled serum samples (Quality Control (QC) samples at 3 concentration levels) analyzed in triplicates at 60° C. for 5 days and compared with fresh matrix that was immediately processed. […] (auto-sampler temperature) and quantifying against a freshly analyzed sample.

[4] = after 5 freeze-thaw cycles, serum
Description: Stability of samples containing H2S and thiols For stability analysis a fresh serum sample was divided into 5 equal aliquots and frozen at −80° C. The aliquots were thawed and analyzed 24 hours later. This process was repeated five times. Percent recovery (stability) was calculated with the following formula: % Stability=100×Ct/C0; where C0 is the initial concentration (μM) of total H2S/thiols in the fresh serum sample and Ct is the concentration after each freeze-thaw cycle. The concentration mean from the 5 freeze-thaw cycles was calculated along with the standard deviation for each compound.

SMILES	Stability (%) = 100 × Ct/C0 ([1]; QC1, one year storage)	Stability (%) = 100 × Ct/C0 ([1]; QC2, one year storage)	Stability (%) = 100 × Ct/C0 ([1]; QC3, one year storage)	other results
N[C@@H](CCC(=O)N[C@@H](CS)C(=O)NCC(=O)O)C(=O)O [Glutathione]	82.1 ± 4.9%	95.8 ± 5.5%	99.0 ± 6.1%	–
[Na+].[Na+].[S-2] [[^34S]Na2S, ^34S isotope-labeled sodium sulfide]	–	–	–	% of peak area, storage stability ([2]; 1 Week): 100.0 ± 9.7%; % of peak area, storage stability ([2]; 2 Week): 101.3 ± 8.5%; % of peak area, storage stability ([2]; 3 Week): 97.3 ± 14.3%; % of peak area, storage stability ([2]; 4 Week): 101.1 ± 8.1%; % of peak area, storage stability ([2]; 5 Week): 96.1 ± 4.5%; % of peak area, storage stability ([2]; 6 Week): 101.1 ± 8.1%; % of peak area, storage stability ([2]; 7 Week): 103.7 ± 12.3%; % of peak area, storage stability ([2]; 8 Week): 98.8 ± 19.9%
N[C@@H](CCC(=O)O)C(=O)N[C@@H](CS)C(=O)O [Glutamylcysteine] (H-Glu-Cys-OH)	95.6 ± 1.3%	96.2 ± 3.5%	94.3 ± 6.9%	–
N[C@@H](CS)C(=O)NCC(=O)O [Cysteinylglycine]	91.9 ± 6.5%	99.0 ± 3.5%	94.4 ± 4.9%	–
S [H2S, Hydrogen sulfide]	98.4 ±2.2%	97.4 ± 4.3%	99.0 ± 3.9%	Sample stability (accelerated) [3]: 94.4%; Freeze-thaw stability [4]: 98.6%

Further lines, with some results ahead:

Stability (%) = 100 × Ct/C0 ([1]; QC1, one year storage)	Stability (%) = 100 × Ct/C0 ([1]; QC2, one year storage)	Stability (%) = 100 × Ct/C0 ([1]; QC3, one year storage)	SMILES	other results
96.9 ± 6.0%	96.6 ± 3.2%	100.5 ± 1.1%	N[C@@H](CS)C(=O)O [Cysteine]	–
90.3 ± 5.6%	101.3 ± 5.3%	108.2 ± 6.9%	N[C@@H](CCS)C(=O)O [Homocysteine]	–
